Measurements as given in PubChem BioAssay (NCI).
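96-well plates; 48 h exposure; 5 concentrations. Endpoints by linear interpolation between flanking doses. Not reached: highest tested concentration assigned. GI50 marks 50% less growth. Definition used: TGI = concentration required for complete inhibition of growth.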

test system: 786-0 renal; experiment: DTP human tumour cell line panel, 48 h

| SMILES | TGI [µM] | GI50 [µM] |
| --- | --- | --- |
| CN(C)C1(N(C)C)Oc2c(c(=O)n(C)c(=O)n2C)C(c2ccccc2)C1(F)F (stereo unspecified) | > 100 |  |
| COc1ccc2[nH]cc(C3(c4c[nH]c5ccc(OC)cc45)C(=O)Nc4ccc(F)cc43)c2c1 | 12.5 | 3.39 |
| CC(C)(C)c1ccc(O)c(C(O)c2ccncc2)c1 (stereo unspecified) | > 100 |  |
| CC1CCC(C(C)C)C(OC(=O)NCn2cc(-c3ccccc3)nn2)C1 (stereo unspecified) | > 100 |  |
| Cc1ccc(-n2c(N)c(C#N)c3[nH]nc(N)c3c2=O)cc1 | > 100 |  |

test system: NCI-H23 lung; experiment: DTP human tumour cell line panel, 48 h

| SMILES | TGI [µM] | GI50 [µM] |
| --- | --- | --- |
| Cn1nc(C(=O)N2CC(CCl)c3c2cc(N)c2ccccc32)cc1NC(=O)Nc1cc(C(=O)N2CC(CCl)c3c2cc(N)c2ccccc32)nn1C (stereo unspecified) | 0.661 |  |
| CN(C)C1(N(C)C)Oc2c(c(=O)n(C)c(=O)n2C)C(c2ccccc2)C1(F)F (stereo unspecified) | > 100 |  |
| COc1ccc2[nH]cc(C3(c4c[nH]c5ccc(OC)cc45)C(=O)Nc4ccc(F)cc43)c2c1 | 8.06 | 2.43 |
| CC(C)(C)c1ccc(O)c(C(O)c2ccncc2)c1 (stereo unspecified) | > 100 |  |
| CC1CCC(C(C)C)C(OC(=O)NCn2cc(-c3ccccc3)nn2)C1 (stereo unspecified) | > 100 |  |
| Cc1ccc(-n2c(N)c(C#N)c3[nH]nc(N)c3c2=O)cc1 | > 100 |  |

test system: HOP-62 NSCLC; experiment: DTP human tumour cell line panel, 48 h

| SMILES | TGI [µM] | GI50 [µM] |
| --- | --- | --- |
| Cn1nc(C(=O)N2CC(CCl)c3c2cc(N)c2ccccc32)cc1NC(=O)Nc1cc(C(=O)N2CC(CCl)c3c2cc(N)c2ccccc32)nn1C (stereo unspecified) | 69.3 |  |
| CN(C)C1(N(C)C)Oc2c(c(=O)n(C)c(=O)n2C)C(c2ccccc2)C1(F)F (stereo unspecified) | > 100 |  |
| COc1ccc2[nH]cc(C3(c4c[nH]c5ccc(OC)cc45)C(=O)Nc4ccc(F)cc43)c2c1 | 13 | 3.09 |
| CC(C)(C)c1ccc(O)c(C(O)c2ccncc2)c1 (stereo unspecified) | > 100 |  |
| CC1CCC(C(C)C)C(OC(=O)NCn2cc(-c3ccccc3)nn2)C1 (stereo unspecified) | > 100 |  |
| Cc1ccc(-n2c(N)c(C#N)c3[nH]nc(N)c3c2=O)cc1 | > 100 |  |

test system: HS 578T breast; experiment: DTP human tumour cell line panel, 48 h

| SMILES | GI50 [µM] | TGI [µM] |
| --- | --- | --- |
| COc1ccc2[nH]cc(C3(c4c[nH]c5ccc(OC)cc45)C(=O)Nc4ccc(F)cc43)c2c1 | 3.13 | 14.8 |
| Oc1cc2cccc[n+]2c2cc(Cl)ccc12 | 84.5 |  |
| CC(C)(C)c1ccc(O)c(C(O)c2ccncc2)c1 (stereo unspecified) |  | > 100 |
| Cc1ccc(-n2c(N)c(C#N)c3[nH]nc(N)c3c2=O)cc1 |  | > 100 |

test system: KM12 colon; experiment: DTP human tumour cell line panel, 48 h

| SMILES | TGI [µM] | GI50 [µM] |
| --- | --- | --- |
| Cn1nc(C(=O)N2CC(CCl)c3c2cc(N)c2ccccc32)cc1NC(=O)Nc1cc(C(=O)N2CC(CCl)c3c2cc(N)c2ccccc32)nn1C (stereo unspecified) | > 100 |  |
| CN(C)C1(N(C)C)Oc2c(c(=O)n(C)c(=O)n2C)C(c2ccccc2)C1(F)F (stereo unspecified) | > 100 |  |
| COc1ccc2[nH]cc(C3(c4c[nH]c5ccc(OC)cc45)C(=O)Nc4ccc(F)cc43)c2c1 | 6.96 | 2.58 |
| CC(C)(C)c1ccc(O)c(C(O)c2ccncc2)c1 (stereo unspecified) | > 100 |  |
| CC1CCC(C(C)C)C(OC(=O)NCn2cc(-c3ccccc3)nn2)C1 (stereo unspecified) | > 100 |  |
| Cc1ccc(-n2c(N)c(C#N)c3[nH]nc(N)c3c2=O)cc1 | > 100 |  |

test system: NCI/ADR-RES ovarian; experiment: DTP human tumour cell line panel, 48 h

| SMILES | TGI [µM] | GI50 [µM] |
| --- | --- | --- |
| Cn1nc(C(=O)N2CC(CCl)c3c2cc(N)c2ccccc32)cc1NC(=O)Nc1cc(C(=O)N2CC(CCl)c3c2cc(N)c2ccccc32)nn1C (stereo unspecified) | > 100 |  |
| CN(C)C1(N(C)C)Oc2c(c(=O)n(C)c(=O)n2C)C(c2ccccc2)C1(F)F (stereo unspecified) | > 100 |  |
| C=CCn1c(C)nc2ccc(Nc3nc(Nc4ccc5nc(C)n(CC=C)c5c4)c4ccccc4n3)cc21 | 6.07 | 2.22 |
| COc1ccc2[nH]cc(C3(c4c[nH]c5ccc(OC)cc45)C(=O)Nc4ccc(F)cc43)c2c1 | 31.1 | 5.76 |
| CC(C)(C)c1ccc(O)c(C(O)c2ccncc2)c1 (stereo unspecified) | > 100 |  |
| CC1CCC(C(C)C)C(OC(=O)NCn2cc(-c3ccccc3)nn2)C1 (stereo unspecified) | > 100 |  |
| Cc1ccc(-n2c(N)c(C#N)c3[nH]nc(N)c3c2=O)cc1 | > 100 |  |

test system: SNB-75 CNS; experiment: DTP human tumour cell line panel, 48 h

| SMILES | TGI [µM] | GI50 [µM] |
| --- | --- | --- |
| CN(C)C1(N(C)C)Oc2c(c(=O)n(C)c(=O)n2C)C(c2ccccc2)C1(F)F (stereo unspecified) | > 100 |  |
| COc1ccc2[nH]cc(C3(c4c[nH]c5ccc(OC)cc45)C(=O)Nc4ccc(F)cc43)c2c1 | 8.23 | 1.38 |
| Oc1cc2cccc[n+]2c2cc(Cl)ccc12 |  | 91.5 |
| CC(C)(C)c1ccc(O)c(C(O)c2ccncc2)c1 (stereo unspecified) | > 100 |  |
